These are literature values, as cited in US6777573B1, “Method for the synthesis of ceralure B1” (The United States of America as represented by the …, priority 2002, dated 2004).

The test system of the data set is Ceratitis capitata (Mediterranean fruit fly, medfly).

“Also recorded” adds a separate entry of the source.

Consider `CCOC(=O)C1CC(I)CCC1C` (mixture of isomers) [ceralure B1, ethyl cis,trans-5-iodo-2-methylcyclohexane-1-carboxylate], for which the “relative attractiveness among ceralure isomers” value (isomers separated by HPLC, study of 4 trans isomers (Warthen et al. 1994)) was “most active isomer; also recorded: superior to the other three isomers”.
Consider `CCOC(=O)C1CC(I)CCC1C` (single isomer, unassigned; (-)) [(−)ceralure B1, reference compound], for which the “higher attractancy than the racemate” value (optically active form versus racemic ceralure B1 (Raw et al.)) is “about 30%”.
